Measurements taken from US10028992B2, “Methods of treating muscular dystrophy” (BOARD OF REGENTS OF THE NEVADA SYSTEM OF HIGHER EDUCATION …, priority 2012, dated 2018).

Test system: α7 integrin promoter
Experiment: muscle cell-based assay: α7βgal+/− myoblasts/myotubes, LacZ reporter, β-galactosidase cleavage of FDG
Parameters: species or system mouse
Conditions: for EC50: Mus musculus, read-out: Fit LogAC50 (converted); for Score: Table 12 compound data; for Fit Curve Class: curve class number, key not given; for Fit Zero Activity [%]: activity at zero concentration
Procedure: An α7 integrin null mouse was produced in which exon 1 of the gene encoding the α7 integrin was replaced by the LacZ reporter. In these mice, all the transcriptional regulatory elements of the α7 integrin promoter were retained, allowing β-galactosidase to report expression of 7 integrin. A primary myoblast cell line (designated α7βgal^+/−) isolated from 10 day old α7^+/− pups were analyzed for the ability of β-galactosidase to report α7 integrin expression. α7βgal^+/− myoblasts were differentiated and subjected to X-gal staining and western analysis (FIGS. 1A and 1B).
The activity of the α7 integrin promoter was measured by β-galactosidase cleavage of the non-fluorescent compound fluorescein di-β-D-galactopyranoside (FDG) to fluorescein. This assay was used to screen compound libraries to identify molecules that up-regulate α7 integrin expression in muscle.
Also evaluated was the effect of various isoforms of laminin and the ligand for α7β1 integrin on integrin expression. Positive hits were subjected to dose-response analysis, western analysis and a myostatin counterscreen (a negative regulator of muscle growth).

[1] = given as log AC50 (negative values)

| Compound | EC50 [1] | Score | Fit Curve Class | Fit HillSlope (curve fit) | Fit Zero Activity [%] (curve fit) | Fit Infinite Activity [%] (curve fit, activity at infinite concentration) | Fit LogAC50 [1] |
| --- | --- | --- | --- | --- | --- | --- | --- |
| COc1cc(NC(=O)CN(C)S(=O)(=O)c2ccc3c(c2)CC(C)N3C(C)=O)cc(OC)c1OC (stereo not shown) [Compound 145] | 10 µM | 42 | 2.2 | 4.9549 | 0.4668% |  |  |
| C/C(=N\NC(=O)c1cc(C)oc1C)c1ccc2ccccc2c1 [Compound 149] | 8.91 µM | 42 | 2.2 | 1.111 | −1.9678% |  |  |
| CCCCC(C(=O)NC1CCCC1)N(C(=O)c1snc(C(N)=O)c1N)c1ccc(C)cc1 (stereo not shown) [Compound 151] | 10 µM | 42 | 2.1 | 3.132 | −26.3814% |  |  |
| COc1ccc(S(=O)(=O)Nc2ccc(S(=O)(=O)Nc3nccs3)cc2)cc1 [Compound 152] | 12.6 µM | 42 | 2.2 | 1.1341 | −8.4801% |  |  |
| O=S(=O)(N/C(=N/C1CCCCC1)c1ccccc1F)c1ccccc1 [Compound 156] | 10 µM | 42 | 2.2 | 2.5334 | −0.0336% |  |  |
| CC(=O)Nc1ccc(NC(=O)c2cc(=O)c3cc(C)cc(C)c3o2)cc1 [Compound 159] | 11.2 µM | 42 | 2.1 | 4.095 | −2.9033% |  |  |
| COc1ccc(/C=C(\NC(=O)c2ccc(C)cc2)C(=O)Nc2ccc(C(=O)O)cc2)cc1 [Compound 160] | 11.2 µM | 42 | 2.1 | 4.095 | −2.4804% |  |  |
| O=S(=O)(c1ccccc1)N1CCCC(c2nc(O)c3nnn(Cc4cccc(Cl)c4)c3n2)C1 (stereo not shown) [Compound 161] | 3.98 µM | 42 | 2.1 | 1.1 | −42.9418% |  |  |
| CCCN1C2CCCC1CC(NC(=O)c1cccc([N+](=O)[O-])c1)C2 (stereo not shown) [Compound 164] |  | 42 | 2.1 | 4.5045 | 0.8371% | 91.825% | −5 |
| O=C(NCCc1ccc(F)cc1)N[C@@H](Cc1ccccc1)C(=O)O [Compound 165] | 11.2 µM | 42 | 2.1 | 4.5045 | −20.12% |  |  |
| Cl.O=C(CN1CCOCC1)NCc1cc([N+](=O)[O-])ccc1O [Compound 166] | 12.6 µM | 42 | 2.1 | 1.3987 | 10.3691% |  |  |
| Cc1nc2c(cnn2-c2ccccc2)c(=O)n1/N=C/c1ccccc1 [Compound 171] | 10 µM | 42 | 2.2 | 3.132 | 9.9159% |  |  |
| CC(C)(C)N/C=C(\C#N)S(=O)(=O)c1ccc(Br)cc1 [Compound 173] | 11.2 µM | 42 | 2.2 | 0.9 | 7.5952% |  |  |
| O=C(O)CCCNC(=O)CCn1nnc2ccccc2c1=O [Compound 174] | 11.2 µM | 42 | 2.1 | 1.8579 | −20.386% |  |  |
| COc1cccc(N2C(=O)CC(N3CCc4ccccc4C3)C2=O)c1 (stereo not shown) [Compound 176] | 10 µM | 42 | 2.1 | 4.9549 | −19.4361% |  |  |
| COC(=O)C1=NNC2(C)C(=O)N(c3ccc(C)cc3)C(=O)C12 (stereo not shown) [Compound 177] | 10 µM | 42 | 2.2 | 4.9549 | 0.9153% |  |  |

Continued, in another order:

| EC50 [1] | Compound | Score | Fit Curve Class | Fit HillSlope (curve fit) | Fit Zero Activity [%] (curve fit) | Fit Infinite Activity [%] (curve fit, activity at infinite concentration) | Fit LogAC50 [1] |
| --- | --- | --- | --- | --- | --- | --- | --- |
| 10 µM | Cn1ccc(C(=O)Nc2cccnc2Cl)n1 [Compound 140] | 42 | 2.2 | 2.7868 | −4.0391% |  |  |
| 10 µM | COC(=O)c1ccc(C2C(C(=O)c3cc4ccccc4o3)=C(O)C(=O)N2CCN2CCOCC2)cc1 (stereo not shown) [Compound 141] | 42 | 2.1 | 4.9549 | −17.8968% |  |  |
| 8.91 µM | COc1cc(NC(=O)C2C3C=CC(C3)C2C(=O)O)ccc1NC(=O)c1ccccc1 (stereo not shown) [Compound 142] | 42 | 2.1 | 2.4064 | −18.7775% |  |  |
| 10 µM | COCc1c(C(=O)N/N=C(\C)c2ccc(OCc3ccccc3)cc2)nnn1-c1nonc1N [Compound 143] | 42 | 2.1 | 4.4495 | 4.6719% |  |  |
| 12.6 µM | O=C(Nc1ccc(N2CCN(C(=O)c3ccccc3F)CC2)cc1)c1cncc(Br)c1 [Compound 144] | 42 | 2.1 | 4.095 | 9.7776% |  |  |
| 10 µM | CC(=O)c1ccc(N(C(=O)CNC(=O)c2ccco2)C(C(=O)NC2CCCC2)c2ccc(C)o2)cc1 (stereo not shown) [Compound 146] | 42 | 2.1 | 4.9549 |  |  |  |
| 11.2 µM | Cc1nnc(NC(=O)CSc2nnc(CCNC(=O)c3ccccc3F)n2C)s1 [Compound 147] | 42 | 2.1 | 2.0937 | 1.0531% |  |  |
| 11.2 µM | COc1ccc(CCNC(=O)Cn2nnc(C(=O)Nc3ccc(Br)cc3)c2N)cc1OC [Compound 148] | 42 | 2.1 | 2.3531 | −28.7719% |  |  |
| 10 µM | CC(C)c1ccc(NC(=O)CN2C(=O)c3ccccc3S2(=O)=O)cc1 [Compound 150] | 42 | 2.2 | 4.5045 | −0.2112% |  |  |
| 7.94 µM | Cc1cc(C(=O)Nc2cccc3ccccc23)c(C)o1 [Compound 153] | 42 | 2.1 | 1.5095 | −21.2671% |  |  |
| 3.16 µM | CC1(C)Cc2c(cnn2-c2cccc(F)c2)C(NC(=O)CCc2cnccn2)C1 (stereo not shown) [Compound 154] | 42 | 2.1 | 0.9 | −46.353% |  |  |
| 10 µM | Cc1c(C(=O)N2CCCCC2)c(S(=O)(=O)Nc2cccc(Br)c2)c(C)n1C [Compound 155] | 42 | 2.1 | 3.99 | −32.1225% |  |  |
| 10 µM | O=[N+]([O-])c1cccc(S(=O)(=O)N2CCN(S(=O)(=O)N3CCOCC3)CC2)c1 [Compound 158] | 42 | 2.2 | 1.9282 | −0.5234% |  |  |
| 5.62 µM | COc1cccc(NC(=O)c2ccc3c(c2)CCCC3)c1 [Compound 162] | 42 | 2.1 | 2.2526 | −31.8121% |  |  |
| 10 µM | CN(C)CCNc1ncnc2sc(-c3ccccc3)cc12 [Compound 163] | 42 | 2.2 | 4.045 | −0.8551% |  |  |
| 7.08 µM | COc1cc(Cl)cc(CN2CCC(CCC(=O)NC3CC3)CC2)c1OC [Compound 167] | 42 | 2.1 | 1.7885 | −38.2233% |  |  |
| 8.91 µM | COc1ccccc1C(=O)NCCOc1ccc(C(C)(C)C)cc1 [Compound 168] | 42 | 2.2 | 1.9673 | −0.7805% |  |  |
| 10 µM | COc1nccc(NCc2ccccc2)c1C#N [Compound 169] | 42 | 2.1 | 4.4495 | −19.7104% |  |  |
| 10 µM | Cc1ccc(-c2csnn2)cc1 [Compound 170] | 42 | 2.1 | 4.4495 | 3.4732% |  |  |
| 10 µM | CN(C)/C(S)=N/c1cccc(C(F)(F)F)c1 [Compound 172] | 42 | 2.2 | 2.3332 | 8% |  |  |
| 5.62 µM | CCNC(=O)COC(=O)c1cc(-c2ccco2)nc2ccccc12 [Compound 175] | 42 | 2.1 | 1.3443 | −62.687% |  |  |
| 11.2 µM | CCCOc1nc(SCCC)nc2c1cnn2-c1ccccc1 [Compound 178] | 42 | 2.1 | 1.1341 | −22.6542% |  |  |
